Data published in patent EP1304333A2, “6,7-Oxygenated steroids and uses related thereto” (Inflazyme Pharmaceuticals, Ltd., priority 1996, dated 1998).

Assays:
[1] = system: isolated trachea; experiment: Allergen (OA)-induced contraction of isolated trachea from sensitized guinea pigs; design: species or system guinea pig; settings: Study 3, 30 µM compound
Method: The effects of a number of the compounds described herein on allergen-induced bronchoconstriction were evaluated for anti-asthma activity. The ability of a compound to inhibit allergen-induced decreases in lung function in sensitized guinea pigs in response to antigen-challenge is indicative of anti-asthma activity. In particular, the model system is useful in the evaluation of the potential effects of a compound in the treatment of the early asthmatic reaction (EAR) when severe bronchoconstriction occurs.
Guinea pigs were exposed to a nebulized solution of 1% ovalbumin (OA) in saline for 15 min. […] Tracheal rings were prepared and bathed in Krebs-Henseleit solution at 37°C and aerated with 5% CO2 in O2. Tissues were suspended under a resting tension of 2 g and isometric contractions were measured using force-displacement transducers coupled to a polygraph. Tissues were incubated with each compound or 0.1% dimethylsulfoxide (as a control) for 20 min, after which increasing concentrations of OA (0.001 - 100 µg/ml) were added to the tissue. After the final concentration of OA was added and the response was recorded, the tissues were stimulated with 100 µM methacholine which caused maximum contraction of the trachea. The magnitude of the contraction induced by OA in the presence of each compound was expressed as a percentage of the maximum contraction obtained using methacholine (100 µM).

[2] = system: sensitized guinea pigs; experiment: Allergen-induced changes in lung resistance and lung compliance in vivo; design: species or system guinea pig; settings: 50 µg/kg inhalation
Method: In addition, the effect of compounds of the invention on lung function in vivo was determined in sensitized animals as follows: • Female Cam Hartley guinea pigs (350-400 g) are sensitized to ovalbumin by exposure of the guinea pigs to a nebulized solution of 1% ovalbumin in saline for 15 minutes. After 10-12 days, the animals are found to be acutely sensitized to the allergen (ovalbumin). Animals are treated by oral gavage, under light halothane anesthesia, with 300 µl polyethyleneglycol-200 (PEG) or 5 mg/Kg of test compound in 300 µl of PEG. Animals are treated once daily for 4 days with the final dose administered 2 hours prior to allergen challenge. Alternatively, compounds were delivered by inhalation, using a Hudson nebulizer driven by 6psi oxygen, providing a single dose of 50 µg/Kg 20 min prior to challenge.
An animal is anaesthetized using ketamine ([…]; i.p.) and xylazine (10 mg/Kg; i.p.) and 1% halothane during the surgical procedure. A tracheostomy is performed and a water-filled esophageal cannula is inserted prior to positioning the animal in a body plethysmograph. The tracheal cannula is attached to a fixed tracheal cannula in the plethysmograph. Cardiac function is monitored using electrocardiography. The animal is paralyzed using pancuronium bromide (0.8 mg/Kg; i.m.) and ventilated with 3 ml tidal breaths using a Harvard small animal ventilator, at a frequency of 60 breaths per minute. Pulmonary resistance and dynamic lung compliance data are obtained from volume, flow and transpulmonary pressure signals using multipoint analysis.
Pulmonary function is continually monitored throughout the experiment and measurements of lung resistance and lung compliance are made at various time-points (e.g., 0, 1, 2, 3, 4, 5, 10, 20 and 30 min) following antigen challenge. Data is collected on a computer-linked physiological measurement system using DIREC Physiological recording software and analyzed using ANADAT software designed for lung mechanics measurements. This software was obtained from RHT-InfoDat Inc., Montreal, Quebec, Canada.
Once baseline resistance and compliance measurements are obtained, the animal is challenged with 6 breaths of saline. After 10 minutes, during which time no alterations in lung function should occur, the animal is challenged with 6 breaths of 2 or 3% ovalbumin in saline (as the antigen stimulus). Saline and antigen are delivered in each breath using a Hudson nebulizer.

[3] = system: sensitized Brown Norway rats; experiment: Allergen-induced lung inflammation (inflammatory cells in lung lavage fluid); format: in vivo, rat; settings: 5 mg/kg/day for 4 days, p.o.; OA challenge; lavage 48 hours after challenge
Text: The ability of a compound to inhibit the allergen-induced accumulation of inflammatory cells such as eosinophils and neutrophils in the lavage fluid obtained from sensitized animals is indicative of anti-asthma activity. In particular, the model system is useful in the evaluation of the effects of compounds in the treatment of the late-phase response of asthma, when lung inflammation and the second phase of bronchoconstriction is apparent.
Male Brown Norway rats (200-250 g) are sensitized to ovalbumin by an intraperitoneal injection of 1 mg ovalbumin and 100 mg aluminum hydroxide in 1 ml of sterile saline. After 21 days the animals are found to be sensitized to ovalbumin. Animals are treated with drug or vehicle (0.3 ml PEG-200) once daily for 4 days by oral gavage. The animals are challenged by exposure, for a period of 60 minutes, to nebulized solution of 0.5% ovalbumin in saline generated using a Devillbis nebulizer. The final dose of drug is given 24 hours after challenge. Forty eight hours after challenge the animals are euthanized by an overdose of halothane and the lungs are lavaged with 7 x 2 mLs of sterile saline (room temperature). The recovered lavage fluid is placed on ice and centrifuged at 1200 rpm to separate the cells from the supernatant. The cells are exposed briefly to Tris/ammonium chloride, pH 7.3 to remove any red cells, and washed in phosphate buffered saline. Cytospins of each cell sample are prepared and stained for the presence of cells containing peroxidase and for the determination of the numbers of eosinophils and neutrophils. The numbers of inflammatory cells are expressed as a percentage of the total number of cells recovered in the lavage fluid.

[4] = system: Ascaris suum sensitized sheep; experiment: Allergic sheep model of asthma (specific lung resistance, hyperresponsiveness to carbachol); format: in vivo; settings: 400 µg/kg 30 min prior to and 4 hrs after challenge, inhalation; -0.5 hr
Method: The model is conscious, where the animals are breathing spontaneously, allowing measurement of airways bronchoconstriction and acute airway hyperresponsiveness.
Sheep which were naturally sensitized to Ascaris suum (30-40 Kg) were intubated with an endotracheal tube and a balloon catheter, positioned in the lower esophagus. Pleural pressure was estimated with the esophageal catheter, while later pressure was measured with a side-hole catheter advanced through and positioned distal to the tip of the endotracheal tube. Transpulmonary pressure differences between the trachea and pleural pressures were measured with a differential pressure transducer catheter system.
The proximal end of the endotracheal tube was connected to a Fleisch pneumotachograph in order to measure flow changes. Pulmonary resistance (RL) was calculated from pressure measurements of transpulmonary pressure, respiratory volume (from digital integration of the flow signal) and flow by the mid-flow technique. SRL was calculated as RL·Vtg (Vtg=thoracic gas volume).
Aerosols generated using a disposable nebulizer, were directed into a T-piece connected to a Harvard respirator and the tracheal tube in series. […]
Specific lung resistance (SRL) was measured every 60 min for 8 hours after antigen challenge. Airways hyperresponsiveness to carbachol was measured 24 hours after the initial challenge.

3α,6α,7β-trihydroxy-17(20)-pregnene [Compound 330]
percentage contraction compared to 100µM methacholine (100%) ([1]; 0.001 µg/ml OA): 0%
percentage contraction compared to 100µM methacholine (100%) ([1]; 0.01 µg/ml OA): 1.90%
percentage contraction compared to 100µM methacholine (100%) ([1]; 0.1 µg/ml OA): 9.00%
percentage contraction compared to 100µM methacholine (100%) ([1]; 1 µg/ml OA): 17.5%
percentage contraction compared to 100µM methacholine (100%) ([1]; 10 µg/ml OA): 26.0%
percentage contraction compared to 100µM methacholine (100%) ([1]; 100 µg/ml OA): 30.0%
Lung Compliance ([2]; 1 min after challenge): 0.349±0.059 ml/cm H2O
Lung Resistance ([2]; 1 min after challenge): 0.382±0.033 cm H2O/ml/sec
Lung Compliance ([2]; 2 min after challenge): 0.213±0.046 ml/cm H2O
Lung Resistance ([2]; 2 min after challenge): 0.420±0.044 cm H2O/ml/sec
Lung Compliance ([2]; 3 min after challenge): 0.176±0.045 ml/cm H2O
Lung Resistance ([2]; 3 min after challenge): 0.420±0.051 cm H2O/ml/sec
Lung Compliance ([2]; 4 min after challenge): 0.145±0.046 ml/cm H2O
Lung Resistance ([2]; 4 min after challenge): 0.455±0.047 cm H2O/ml/sec
Lung Compliance ([2]; 5 min after challenge): 0.146±0.031 ml/cm H2O
Lung Resistance ([2]; 5 min after challenge): 0.446±0.124 cm H2O/ml/sec
Lung Compliance ([2]; 10 min after challenge): 0.138±0.022 ml/cm H2O
Lung Resistance ([2]; 10 min after challenge): 0.436±0.036 cm H2O/ml/sec
Lung Compliance ([2]; 20 min after challenge): 0.193±0.054 ml/cm H2O
Lung Resistance ([2]; 20 min after challenge): 0.413±0.076 cm H2O/ml/sec
Lung Compliance ([2]; 30 min after challenge): 0.181±0.046 ml/cm H2O
Lung Resistance ([2]; 30 min after challenge): 0.412±0.072 cm H2O/ml/sec
Lung Compliance ([2]; Baseline): 0.463±0.129 ml/cm H2O
Lung Resistance ([2]; Baseline): 0.300±0.025 cm H2O/ml/sec
Lung Compliance ([2]; OA/10 s): 0.565±0.062 ml/cm H2O
Lung Resistance ([2]; OA/10 s): 0.288±0.036 cm H2O/ml/sec
Percentage Total Cells Recovered in Lavage Fluid: Cells Stained Positive for Peroxidase [3]: 5.65 ± 2.44 %
Percentage Total Cells Recovered in Lavage Fluid: Eosinophils [3]: 1.98 ± 0.78 %
Percentage Total Cells Recovered in Lavage Fluid: Neutrophils [3]: 6.16 ± 4.54%
Specific Lung Resistance (% Baseline) [4]: 0±4 % Baseline
